Results taken from ChEMBL document CHEMBL3045966, “Synthesis and Selective Bioactivity of New Pyrazolecarboxamide Derivatives” (J Pestic Sci, 1999).

Key:
[1] = tested on: Tetranychus urticae; assay: Acaricidal activity against Tetranychus urticae (two-spotted spider mite) reared on kidney bean leaves followed by compound exposure through leaf dipping assessed as mite mortality at 300 ppm measured after 3 days; assay type: functional; details: foliar, 72 h
[2] = Toxicity against Oryzias latipes (Japanese medaka) assessed as fish mortality at 0.05 ppm measured after 3 days; assay type: organism-based; details: in vivo
[3] = tested on: Tetranychus urticae; assay: Acaricidal activity against Tetranychus urticae (two-spotted spider mite) reared on kidney bean leaves followed by compound exposure through leaf dipping assessed as mite mortality at 30 ppm measured after 3 days; assay type: functional; details: foliar, 72 h
[4] = Toxicity against Oryzias latipes (Japanese medaka) assessed as fish mortality at 0.5 ppm measured after 3 days; assay type: organism-based; details: in vivo
[5] = tested on: Tetranychus urticae; assay: Acaricidal activity against Tetranychus urticae (two-spotted spider mite) reared on kidney bean leaves followed by compound exposure through leaf dipping assessed as mite mortality at 3 ppm measured after 3 days; assay type: functional; details: foliar, 72 h
[6] = tested on: Tetranychus urticae; assay: Acaricidal activity against Tetranychus urticae (two-spotted spider mite) reared on kidney bean leaves followed by compound exposure through leaf dipping assessed as mite mortality at 10 ppm measured after 3 days; assay type: functional; details: foliar, 72 h

| SMILES | mortality at 300 ppm [1] [%] | mortality at 72 h, 0.05 ppm [2] [%] | mortality at 30 ppm [3] [%] | mortality at 72 h, 0.5 ppm [4] [%] | mortality at 3 ppm [5] [%] | mortality at 10 ppm [6] [%] |
| --- | --- | --- | --- | --- | --- | --- |
| CCOCCc1ccc(OCCN(C(C)=O)C(=O)c2cc(C3CC3)nn2C)c(C)c1 | 100 | 0 | 0 | 51 |  |  |
| CCOCCc1ccc(OCCN(C(C)=O)C(=O)c2cc(C(C)(C)C)nn2C)c(C)c1 | 100 | 0 | 100 | 1 | 0 | 80 |
| CCOCCc1ccc(OCCN(C(=O)CC)C(=O)c2cc(C(C)(C)C)nn2C)c(C)c1 | 100 | 0 | 100 | 1 | 0 | 0 |
| CCOCCc1ccc(OCCN(C(=O)c2cc(C(C)(C)C)nn2C)C(=O)C(C)C)c(C)c1 | 100 | 0 | 100 | 0 | 0 | 100 |
| CCOCCc1ccc(OCCN(C(=O)c2cc(C(C)(C)C)nn2C)C(=O)C2CC2)c(C)c1 | 100 | 0 | 100 | 0 | 0 | 30 |
| CCOCCc1ccc(OCCN(C(=O)c2ccccc2)C(=O)c2cc(C(C)(C)C)nn2C)c(C)c1 | 100 | 0 | 100 | 0 | 0 | 0 |
| CCOCCc1ccc(OCCNC(=O)c2cc(CC)nn2C)c(C)c1 | 100 | 51 | 30 | 100 | 0 | 0 |
| CCCc1cc(C(=O)NCCOc2ccc(CCOCC)cc2C)n(C)n1 | 0 | 1 | 0 | 100 | 0 | 0 |
| CCOCCc1ccc(OCCNC(=O)c2cc(C(C)(C)C)nn2C)c(C)c1 | 100 | 1 | 30 | 100 | 0 | 0 |
| CCOCCc1ccc(OCCNC(=O)c2c(Cl)c(C)nn2C)c(C)c1 | 100 | 100 | 100 | 100 | 0 | 100 |
| CCOCCc1ccc(OCCNC(=O)c2c(Cl)c(CC)nn2C)c(C)c1 | 100 | 100 | 100 | 100 | 0 | 100 |
| CCOCCc1ccc(OCCNC(=O)c2c(Cl)c(C(C)(C)C)nn2C)c(C)c1 | 30 | 0 | 30 | 0 | 0 | 30 |
| CCOCCc1ccc(OCCN(C(C)=O)C(=O)c2c(Cl)cnn2C)c(C)c1 | 0 | 0 | 0 | 0 |  |  |
| CCOCCc1ccc(OCCN(C(C)=O)C(=O)c2c(Cl)c(C)nn2C)c(C)c1 | 100 | 1 | 100 | 100 | 30 | 80 |
| CCOCCc1ccc(OCCN(C(C)=O)C(=O)c2c(Cl)c(CC)nn2C)c(C)c1 | 100 | 51 | 100 | 100 | 0 | 30 |
| CCCc1nn(C)c(C(=O)N(CCOc2ccc(CCOCC)cc2C)C(C)=O)c1Cl | 0 | 0 | 0 | 100 |  |  |
| CCOCCc1ccc(OCCN(C(C)=O)C(=O)c2c(Cl)c(C(C)(C)C)nn2C)c(C)c1 | 80 | 0 | 0 | 0 |  |  |
| CCOCCc1ccc(OCCN(C(=O)CC)C(=O)c2c(Cl)c(C)nn2C)c(C)c1 | 100 | 0 | 100 | 100 | 0 | 100 |
| CCCC(=O)N(CCOc1ccc(CCOCC)cc1C)C(=O)c1c(Cl)c(C)cn1C | 100 | 0 | 100 | 100 | 0 | 30 |
| CCCCCC(=O)N(CCOc1ccc(CCOCC)cc1C)C(=O)c1c(Cl)c(C)nn1C | 100 | 1 | 100 | 100 | 30 | 80 |
| CCCCCCCCCCC(=O)N(CCOc1ccc(CCOCC)cc1C)C(=O)c1c(Cl)c(C)nn1C | 100 | 0 | 100 | 51 | 0 | 0 |
| CCOCCc1ccc(OCCN(C(C)=O)C(=O)c2cc(C)nn2C)c(C)c1 | 100 | 0 | 100 | 1 | 0 | 0 |
| CCOCCc1ccc(OCCN(C(C)=O)C(=O)c2cc(CC)nn2C)c(C)c1 | 100 | 0 | 100 | 100 | 0 | 0 |
| CCCc1cc(C(=O)N(CCOc2ccc(CCOCC)cc2C)C(C)=O)n(C)n1 | 100 | 0 | 30 | 51 | 0 | 0 |
| CCOCCc1ccc(OCCN(C(C)=O)C(=O)c2cc(C(C)C)nn2C)c(C)c1 | 100 | 0 | 100 | 100 | 0 | 30 |
| CCOCCc1ccc(OCCNC(=O)c2cc(C)nn2C)c(C)c1 | 30 | 0 | 0 | 0 | 0 | 0 |
